The assay deals with T1, PH domain of GRP (Mus musculus, UniProt O08967).
T1 sequence (O08967 239-399): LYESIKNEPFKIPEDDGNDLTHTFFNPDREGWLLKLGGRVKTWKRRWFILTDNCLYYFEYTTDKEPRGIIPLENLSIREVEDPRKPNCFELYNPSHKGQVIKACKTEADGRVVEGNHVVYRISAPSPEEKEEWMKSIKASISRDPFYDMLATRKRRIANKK
The assay can be described thus: Competition for [3H]dioctanoyl PtdIns(3,4,5)P3 binding to the PH domain of GRP. Details: GST fused to the PH region of GRP (amino acids 239-399); made in house; host or cells: bacteria. To be noted: competition for [^3 H]dioctanoyl PtdIns(3,4,5)P3. Here is the method:
Binding assays were performed as described in (Rameh, L. E. et al., J. Biol. Chem., In Press). Briefly, GST fused to the PH region of GRP (amino acids 239-399) was bound to glutathione immobilized on agarose beads (Sigma). Synthetic [^3 H]-labeled diotanoyl PtdIns(3,4,5)P3 was added, and after one hour the beads were separated from the supernatant by centrifugation. The amount of [^3 H]-PtdIns(3,4,5)P3 bound to the PH domain was calculated by subtracting the amount of free [^3 H] present in supernatants from GST-GRP from the amount of free [^3 H] in supernatants from control GST. The data was fitted to the equation [bound]=Bmax×[free]/(KD + [free]) by least squares curve fit. For the competition assays the beads containing the GST-fusion proteins were incubated with 2.5 μM[^3 H]-labeled dioctanoyl PtdIns(3,4,5)P3 bound was calculated based on the amount of [^3 H] bound to the beads in the absence of competitor. The total [^3 H] bound to the GST control was less then 0.5% of the total [^3 H] bound to GRP PH domain. The data was fitted to the equation % bound=100-n×L/Klapp +L) where n is the % specific binding, L is the concentration of unlabeled lipid added and Klapp is the apparent competitive dissociation constant. The rations of the apparent dissociation constants accurately reflect the ratios of the true dissociation constants under the present experimental conditions (Rameh, L. E. et al., J. Biol. Chem., In Press).
The data depicted in FIG. 8 indicate that receptor signaling through PI3-kinases, which generates PtdIns(3,4,5)P3, may specifically regulate ARF proteins through GRP. In order to further test this, the relative binding affinities of PtdIns(3,4,5)P3 versus PtdIns (4,5)P2, which is constitutively present in cell membranes, for the PH domain of GRP were determined. A GST fusion protein of the PH domain of GRP was incubated with various concentrations of synthetic [^3 H]dioctanoyl PtdIns(3,4,5)P3 and binding was determined (FIG. 9A). These experiments show high affinity binding of this polyphosphoinositide,with a calculated Kd=0.5 μM.

For “Phosphatidylinositol (3,4,5)-Trisphosphate [PtdIns(3,4,5)P3]”, the “KI(app), fold lower than for PtdIns(4,5)P2” value is reported as 10-20 fold.

Source of the values: patent US6194173A, “Binding proteins for phosphoinositides, GRP1 or general receptor 1 for phophoinositide” (priority 1999, dated 2001).
